Test results published in publication PMC11530130, “Peripherally restricted PICK1 inhibitor mPD5 ameliorates pain behaviors in murine inflammatory and neuropathic pain models” (JCI Insight, 2024).
Several values for one entry are separate records, joined by “and”; a condition that tells them apart may be missing. Equal entries are not always repeated.

Tested on: mice, CFA model of inflammatory pain
Assay: CFA model, marble-burying test
Format: in vivo, mouse
Description: Induction of inflammatory pain (CFA model).
Injury was induced on the right hind paw, whereas the contralateral left hind paw was used as internal control of the C57BL/6J male and female mice (Janvier, France). The inflammatory pain was induced by injection of 50 μL undiluted Complete Freund’s Adjuvant (CFA) (F5881, Sigma) unilaterally into the intraplantar surface of the right hind paw, whereas control mice were injected with the same amount of 0.9 % saline (B. Braun, Germany). All intraplantar injections were performed with an insulin needle (0.3 mL BD Micro-Fine) while the animal was under isoflurane anaesthesia (2%) for maximum 60 seconds. Von Frey was applied up to 11 days after unilateral CFA injection depending on the experiment. […]
For the first experiment with sustained administration of mPD5 (Figure 7C), the mice underwent a baseline von Frey reading as described in the “Mechanically-evoked pain (von Frey).”-section and SNI surgery as described in “Induction of neuropathic pain (SNI model).”-section. […] At 4,5 hours after the 10 μmol/kg mPD5 injection paw withdrawal threshold was measured again followed by a s.c. injection of 2 μmol/kg mPD5 in all animals. The PWT was measured again at 6 hours +7 hours + 8 hours + 9 hours + 10 hours + 11 hours + 22 hours + 23 hours + 25 hours + 27 hours + 49 hours + 121 hours after the initial 10 μmol/kg mPD5 injection performed on day 125. […]

With `CCCCCCCCCCCCCC(=O)N(CCOCCOCCC(=O)N[C@@H](Cc1c[nH]cn1)C(=O)N[C@@H](Cc1c[nH]c2ccccc12)C(=O)N[C@@H](CC(C)C)C(=O)N[C@@H](CCCCN)C(=O)N[C@H](C(=O)O)C(C)C)CCOCCOCCC(=O)N[C@@H](Cc1c[nH]cn1)C(=O)N[C@@H](Cc1c[nH]c2ccccc12)C(=O)N[C@@H](CC(C)C)C(=O)N[C@@H](CCCCN)C(=O)N[C@H](C(=O)O)C(C)C` [mPD5, myristoyl-NPEG4-(HWLKV)2] the “effect on CFA-induced decrease in marble burying” value (10 μmol/kg, to the level of the naive mice) was “reverted significantly” and the “marbles buried, individual mice” value (1 hour after s.c. 10 μmol/kg) was 6 and 9 and 10 and 11 and 7 and 4 and 5.
